Laboratory results from PubChem BioAssay AID434951 (Broad Institute, 2010).
Activity calls are given as the source filed them.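 How the source made its calls: active means a fitted half-maximal concentration EC50 for the rise in nuclear signal no higher than ten times the top dose tested; inconclusive means flat fit with activity between 30% and 70%, or unusable fit; inactive means EC50 beyond ten times the top dose.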

Biological target: Hypoxia-inducible factor 1-alpha (Homo sapiens) (UniProt Q16665)
Sequence (Q16665 whole entry, looked up): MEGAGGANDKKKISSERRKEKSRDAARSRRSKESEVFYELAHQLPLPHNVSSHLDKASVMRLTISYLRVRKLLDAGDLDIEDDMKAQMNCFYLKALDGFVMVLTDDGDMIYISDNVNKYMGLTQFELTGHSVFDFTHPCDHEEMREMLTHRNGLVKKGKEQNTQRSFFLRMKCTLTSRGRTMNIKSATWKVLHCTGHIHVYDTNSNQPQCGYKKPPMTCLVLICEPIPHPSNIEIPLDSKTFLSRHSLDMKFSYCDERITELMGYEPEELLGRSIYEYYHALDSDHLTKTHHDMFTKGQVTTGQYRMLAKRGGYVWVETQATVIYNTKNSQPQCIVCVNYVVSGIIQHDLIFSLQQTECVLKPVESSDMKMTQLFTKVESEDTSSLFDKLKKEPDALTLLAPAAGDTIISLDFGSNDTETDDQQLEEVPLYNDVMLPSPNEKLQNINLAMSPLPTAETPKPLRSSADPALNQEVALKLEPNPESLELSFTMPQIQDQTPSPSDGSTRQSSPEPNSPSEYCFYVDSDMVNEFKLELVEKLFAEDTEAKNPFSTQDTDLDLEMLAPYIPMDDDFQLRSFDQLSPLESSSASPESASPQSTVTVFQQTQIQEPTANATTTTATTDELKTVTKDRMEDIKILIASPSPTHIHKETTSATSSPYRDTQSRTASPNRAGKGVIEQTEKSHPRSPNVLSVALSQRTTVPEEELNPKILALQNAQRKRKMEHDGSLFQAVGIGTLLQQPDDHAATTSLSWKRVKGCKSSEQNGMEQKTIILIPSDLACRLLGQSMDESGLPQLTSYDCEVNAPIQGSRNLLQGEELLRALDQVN
Test: activators of HIF1alpha nuclear accumulation, confirmation, imaging, fluorescence, U2OS GFP-HIF1alpha (AID 434951)
Conditions: U2OS GFP-HIF1alpha nuclear intensity, high-content imaging

SMILES | EC50
Cc1ccc(C)c(CNS(=O)(=O)c2ccc3c(c2)C(C)(C)C(=O)N3C)c1 | > 35 µM (inactive)
COc1ccc2ccccc2c1/C=N/Nc1cccc(C(=O)O)c1 | > 35 µM (inactive)
O=[N+]([O-])c1cc(Cl)cc(/C=N\Nc2ccccn2)c1O | 1.65 µM
CS(=O)(=O)c1cccc(C(=O)N(CCc2ccccc2)Cc2cccs2)c1 | > 35 µM (inactive)
Cc1ccccc1NC(=O)c1ccccc1O | > 35 µM (inactive)
O=C(O)c1cccnc1SCc1ccccc1Cl | > 35 µM (inactive)
O=C(COc1cccc2ccccc12)Nc1ccc(Cl)cc1C(=O)O | > 35 µM (inactive)
CCN(CC)CCOC(=O)C(Cc1ccco1)Cc1cccc2ccccc12 (centres undefined) | > 35 µM (inactive)
CCOC(=O)/C(=N\Nc1cccc(C(F)(F)F)c1)N1CCOCC1 | > 35 µM (inactive)
COc1ccc(C2CC(c3cccs3)=NN2C(=O)CSc2nc(=O)n3cc(C)ccc3n2)cc1 (centres undefined) | > 35 µM (inactive)
CC(=O)N(O)CCCCCNC(=O)CCC(=O)N(O)CCCCCNC(=O)CCC(=O)N(O)CCCCCN | 5.56 µM
CCCCC(=O)NC(c1ccccc1Cl)c1ccc2cccnc2c1O (centres undefined) | 3.16 µM
O=C(Cn1c(SCC(=O)N2CCCc3ccccc32)nc2ccccc21)N1CCCC1 | > 35 µM (inactive)
Cc1nc2ccccc2c(=O)n1/N=C/c1ccc2ccccc2c1O | 22.2 µM
COc1ccc(-c2nc(C#N)c(N3CCN(C(=O)c4ccco4)CC3)o2)cc1OC | > 35 µM (inactive)
CCNC(=O)COc1cccc(C(=O)NCc2ccccc2)c1 | > 35 µM (inactive)
O=C(N/N=C/c1ccccc1O)c1cccc(C(F)(F)F)c1 | 14.3 µM
O=C(CNC(=O)c1ccccc1Br)N/N=C/c1cc(Br)ccc1O | 6.52 µM
COc1ccccc1C(c1nnnn1CC1CCCO1)N1CCC(C(N)=O)CC1 (centres undefined) | > 35 µM (inactive)
CC(=O)NC(c1cccc([N+](=O)[O-])c1)c1ccc2cccnc2c1O (centres undefined) | 10.7 µM
O=c1[nH]c(C2CCN(S(=O)(=O)c3ccc(C(F)(F)F)cc3)CC2)nc2c1nnn2Cc1ccc(F)cc1 | > 35 µM (inactive)
CCn1ncc(C2=NOC(C(=O)Nc3ccc4c(c3)OCO4)C2)c1C (centres undefined) | > 35 µM (inactive)
O=C(NCCc1ccccc1)c1cc2sccc2n1Cc1ccccc1 | > 35 µM (inactive)
Cn1nc(C(=O)NCCCN2CCCCC2)c2c1-c1ccccc1S(=O)(=O)C2 | > 35 µM (inactive)
CCCC(=O)NC(c1ccccc1OC)c1ccc2cccnc2c1O (centres undefined) | 5.97 µM
Cc1ccc(NC(=O)CSc2ncc3ccccn23)cc1 | > 35 µM (inactive)

SMILES | EC50
COCCn1c(-c2ccc(OC)cc2)cnc1SCC(=O)Nc1ccc(OC)cc1OC | > 35 µM (inactive)
CCOc1ccccc1NC(=O)COc1ccc2c(c1)OCO2 | > 35 µM (inactive)
COc1ccc(C(=O)Nc2ccccc2C(=O)N/N=C/c2ccccn2)cc1OC | 10.6 µM
CCN(CC)c1ccc(/C=N/Nc2nc3ccccc3[nH]2)c(O)c1 | 6.95 µM
COc1ccc(N(CC(=O)Nc2cc(OC)ccc2OC)S(=O)(=O)c2c(C)noc2C)cc1 | > 35 µM (inactive)
S=c1[nH]nc(-c2ccco2)n1/N=C/c1cccs1 | > 35 µM (inactive)
NC(=S)NNC(=O)c1cc(C(F)(F)F)cc(C(F)(F)F)c1 | > 35 µM (inactive)
COc1ccc(/C=C/C(=O)NCCSCc2ccco2)cc1OC | > 35 µM (inactive)
O=C(N/N=C/c1cc(Br)cc(Br)c1O)c1ccncc1 | > 35 µM (inactive)
O=C1CN(c2ccccc2)C(=O)N1 | > 35 µM (inactive)
Cc1ccc2[nH]c(C(=O)N/N=C/c3ccccc3O)c(C)c2c1 | 7.06 µM
O=C(Nc1nc2c(F)cc(F)cc2s1)c1ccccn1 | 5.5 µM
Cc1nc2ccccc2n2c(-c3ccccc3)c3c(=O)n(C)c(=O)n(C)c3c12 | > 35 µM (inactive)
CCOC(=O)c1c(C)nc2cc(C)ccn12 | > 35 µM (inactive)
Cn1cc(CC(=O)N2CCN(c3ccc(Cl)cc3)CC2)c2ccccc21 | > 35 µM (inactive)
O=C(N/N=C\c1cc(Br)ccc1O)c1ccc(S(=O)(=O)N2CCCCC2)cc1 | 6.74 µM
Nc1nonc1-n1nnc(C(=O)N/N=C/c2cc(Br)ccc2O)c1CSC1=NCCS1 | 29.6 µM
O=C(c1cccnc1)c1cc2ccccc2[nH]1 | > 35 µM (inactive)
CCN(CC)c1ccc(/C=N/NC(=O)c2ccc3nc[nH]c3c2)c(O)c1 | 10.5 µM
COc1ccccc1-c1cc(C(F)(F)F)nc(S(=O)(=O)CCCC(=O)N2CCCCC2C)n1 (centres undefined) | > 35 µM (inactive)
FC(F)Oc1ccc(NC(=S)Nc2ccc3cn[nH]c3c2)cc1 | > 35 µM (inactive)
CC(=O)c1cccc(NC(=O)CN(C)S(=O)(=O)c2cccc3nsnc23)c1 | > 35 µM (inactive)
CCOC(=O)c1c(NC(=O)CCC(=O)O)sc2c1CCCCC2 | > 35 µM (inactive)
COc1ccc(Cl)c(OC)c1C(=O)NC(=O)Nc1c(F)cc(F)cc1F | > 35 µM (inactive)
COc1ccc(C(=O)CSc2nncn2C)cc1 | > 35 µM (inactive)
O=C(N/N=C/c1sc2ccccc2c1O)c1cccc2ccccc12 | 31.4 µM

SMILES | EC50
Cc1ccc(C2(O)CN(c3ccccc3C)C3=[N+]2CCS3)cc1 (centres undefined) | > 35 µM (inactive)
CCOCC(=O)Nc1ccc(S(=O)(=O)N2CCC(c3nc4ccccc4[nH]3)CC2)cc1 | > 35 µM (inactive)
COc1ccc(C(=O)NCCc2nc3cc([N+](=O)[O-])ccc3n2C)cc1 | > 35 µM (inactive)
CCOC(=O)C1=C(c2ccccc2)NC(=O)NC1c1ccc(O)c(Cl)c1 (centres undefined) | 12.7 µM
Cc1cccc(C)c1Nc1c(-c2ccccn2)nc2ccccn12 | 3.28 µM
O=C(C1CCCN(Cc2ccccc2F)C1)N1CCc2ccccc2C1 (centres undefined) | > 35 µM (inactive)
CCC/C(=N/NC(=O)c1cccc(Cl)c1)c1ccccc1 | > 35 µM (inactive)
COc1ccc(/C=C(\C#N)c2nc3ccccc3[nH]2)cc1O | > 35 µM (inactive)
O=C(CCc1nnc(-c2ccccc2)o1)c1ccc(Cl)cc1 | > 35 µM (inactive)
CCCCOc1ccc(C(=O)NCC(=O)OC2CCOC2=O)cc1 (centres undefined) | 34.7 µM
Cn1c(CO)nc2c3ccccc3ccc21 | > 35 µM (inactive)
CCC(C)NCCOc1ccc(C)cc1[N+](=O)[O-] (centres undefined) | > 35 µM (inactive)
COc1ccc(C)cc1NC(=O)c1ccc(N(C)S(C)(=O)=O)cc1 | > 35 µM (inactive)
COc1ccc(-n2c(C)csc2=S)cc1 | > 35 µM (inactive)
O=C(c1ccc(OC2CCN(CCc3ccccc3)CC2)cc1)N1CCCC(CCCO)C1 (centres undefined) | > 35 µM (inactive)
O=C(COC(=O)Cc1ccc(S(=O)(=O)N2CCCCC2)s1)Nc1ccc2c(c1)OCO2 | > 35 µM (inactive)
Cn1c(N/N=C/c2cc3ccccc3nc2Cl)nc2ccccc21 | 18.1 µM
CCOC(=O)C(=Cc1ccc(OCc2ccc([N+](=O)[O-])cc2)c(OC)c1)C(=O)OCC | 7.32 µM
C=CCc1cccc(/C=N/NC(=O)c2ccc3nc[nH]c3c2)c1O | 34.6 µM
CC(=O)Nc1ccc(S(=O)(=O)Nc2ccc(S(=O)(=O)Nc3nccs3)cc2)cc1 | > 35 µM (inactive)
N/C(=N\OC(=O)C(c1ccccc1)c1ccccc1)c1cccnc1 | > 35 µM (inactive)
CCC(=O)NC(c1ccccc1OC)c1ccc2cccnc2c1O (centres undefined) | 6.11 µM
COc1ccc(C2NN=C(c3ccc(C)cc3)S2)cc1 (centres undefined) | > 35 µM (inactive)
CCOc1ccc(N2CC(C(=O)Nc3ccccc3C(=O)NC3CC3)CC2=O)cc1 (centres undefined) | > 35 µM (inactive)
CCn1cc(C(=O)NCC(OC)OC)c(=O)c2cc(S(=O)(=O)N3CCC(C)CC3)ccc21 | > 35 µM (inactive)
O=C(N/N=C/c1cc(O)ccc1Br)c1cccnc1 | > 35 µM (inactive)

SMILES | EC50
CCN(CC)c1ccc(/C=N/NC(=O)c2nnn(-c3nonc3N)c2C(C)C)c(O)c1 | 3.55 µM
C/C(=N\NC(=O)c1nnn(-c2nonc2N)c1-c1ccccc1)c1ccccc1O | 11.1 µM
CN(C)S(=O)(=O)c1cccc(NC(=S)N/N=C/c2cc(Br)ccc2O)c1 | 12.7 µM
C=CCOc1ccc(/C=C2\SC(=Nc3cccnc3)NC2=O)cc1 | > 35 µM (inactive)
CCCCC(=O)N1CCN(c2nc3ccc(F)cc3s2)CC1 | > 35 µM (inactive)
Nc1nc(SCC(=O)N2CCCC2)[nH]c(=O)c1-c1ccccc1 | > 35 µM (inactive)
C/C(=N\Nc1ccc2nncn2n1)c1ccccn1 | 3.84 µM
O=C(c1ccc(OC2CCN(Cc3ccc(F)cc3)CC2)cc1)N1CCCC1 | > 35 µM (inactive)
COc1cc(OC)c2nc(C)c3c(c2c1)N(c1ccc(O)cc1)CC3 | > 35 µM (inactive)
O=C(Nc1ccc2ccccc2c1)c1ccccc1O | > 35 µM (inactive)
O=C(CSc1nc2ccccc2c(=O)[nH]1)Nc1ccc(Br)cc1 | > 35 µM (inactive)
Cc1ccc(S(=O)(=O)/N=C2/NC(=O)/C(=C/c3cc([N+](=O)[O-])ccc3O)S2)cc1 | > 35 µM (inactive)
C=CCN(c1ccccc1)S(=O)(=O)c1cccc(C(=O)Nc2ncccc2O)c1 | > 35 µM (inactive)
CCN(CC)c1ccc(/C=N/NC(=O)c2cccc(S(=O)(=O)N3CCOCC3)c2)c(O)c1 | 1.13 µM
Cc1ccc(Nc2c(-c3ccccn3)nc3cc(C)ccn23)cc1 | 5.51 µM
CC(C)c1nnc(NC(=O)CCC(=O)NC2CC2)s1 | > 35 µM (inactive)
COc1ccc(NC(=O)Nc2ccc(Br)cn2)cc1 | > 35 µM (inactive)
CCCC(=O)NC(c1cccs1)c1cc(Cl)c2cccnc2c1O (centres undefined) | 7.25 µM
CCC(=NCc1cc(OC)cc(OC)c1)c1c(O)[nH]c(=O)[nH]c1=O | > 35 µM (inactive)
O=C(Nc1ccc(Cl)cc1)NN1CC(=O)N(c2cccc(C(F)(F)F)c2)CC1=O | > 35 µM (inactive)
O=C(CCc1ccccc1)Nc1ccnn1C1CCN(C/C=C/c2ccccc2)CC1 | > 35 µM (inactive)
CC1=NC(C#N)=C(C#N)NC(C)(C)C1 | > 35 µM (inactive)
O=C(Cn1c(Cc2ccccc2)nc2ccccc21)NCc1ccc2c(c1)OCO2 | > 35 µM (inactive)
Cc1ccc(-c2nc3ccccc3nc2NN)cc1 | > 35 µM (inactive)
O=C(CS(=O)(=O)c1ccccc1)Nc1ccc(N2CCOCC2)cc1 | > 35 µM (inactive)
CCn1c(C)nc2cc(C(=O)N/N=C/c3cccc(O)c3O)ccc21 | 24.6 µM
